Assay: In vitro C-C chemokine receptor type 3 activity of compound by using eotaxin induced human eosinophil chemotaxis assay

SMILES	IC50
CC[C@H](O)[C@H]1C[C@@H](Cc2ccccc2)CCN1CCCNC(=O)Nc1cccc(C(C)=O)c1 [1-(3-Acetyl-phenyl)-3-{3-[(2R,4S)-4-benzyl-2-((S)-1-hydroxy-propyl)-piperidin-1-yl]-propyl}-urea]	20 nM
N#Cc1cccc(NC(=O)NCCCN2CCC(Cc3ccc(F)cc3)CC2)c1 [1-(3-Cyano-phenyl)-3-{3-[4-(4-fluoro-benzyl)-piperidin-1-yl]-propyl}-urea]	80 nM
N#Cc1cccc(NC(=O)NCCCN2CCC(Cc3ccc(Cl)cc3)CC2)c1 [1-{3-[4-(4-Chloro-benzyl)-piperidin-1-yl]-propyl}-3-(3-cyano-phenyl)-urea]	200 nM

— BindingDB's records for doi:10.1016/s0960-894x(02)00206-8 (Bristol-Myers Squibb, 2002)
